pEC50: −log10 of the molar value.
Key:
PC-3 cells [1] = experiment: Proliferation assay, adherent monolayer, alamarBlue; assay type: cell-based, human; settings: adherent monolayers
Procedure: PC-3 cells were incubated with compounds for 5 days at 37 °C/5% CO2, stained with alamarBlue® and fluorescence was determined (544 nm/590 nm). Data were analyzed as described above.

PC-3 cells [2] = experiment: Clonogenic assay in soft agar (anchorage-independent growth); assay type: cell-based, human; settings: alamarBlue, read-out: Colony formation EC50 PC-3
Procedure: Clonogenic assays were performed using agarose-containing media. Cells were incubated at 37 °C and 5% CO2 for 14 days. alamarBlue® was used to detect colonies of viable cells (530 nm/590 nm). Data analysis was performed as described above.

pEC50 (PC-3 cells [1]): 5.78
pEC50 (PC-3 cells [2]): 7.38
Structure (SMILES): CN(c1ncccc1CNc1nc(Nc2ccc3c(c2)CC(=O)N3)ncc1C(F)(F)F)S(C)(=O)=O [PF-562,271, reference compound]

— publication PMC5833389 (Oncogenesis, 2018)
